From US20220372014A1, “NEUROPROTECTIVE COMPOUNDS AND METHODS OF USE THEREOF” (The Johns Hopkins University, priority 2019, published 2022)

What was measured:
[1] = tested on: HeLa cells or neuronal cells; experiment: Cell death assay of Example 3 (MNNG, alamarBlue; protection against parthanatos, Table 4); format: cell-based; settings: 1 μM test compound, MNNG-induced cell death, alamarBlue
Method: Cell death assay: 200 μl of cells (HeLa cells or neuronal cells) culture (1×10^4 cells/well) were plated into the wells of a sterile 96-well cell culture plate. The cells were incubated for 18 hours at 37° C. The medium was removed and changed with 100 μl/well of 1 μM test compound. Incubate for 1 hours at 37° C. Ten μl of 500 μM MNNG (N-Methyl-N′-nitro-N-nitrosoguanidine) was added to each well. The medium was aspirated well and incubated for 15 min at 37° C. The cells were washed with the fresh medium. The medium was changed with 1 μM of test compound and incubated for 18 hours at 37° C. 10 μl/well of alamarBlue reagent was added directly to the well and incubated for 1 to 4 hours at 37° C. Fluorescence was measured using a fluorescence excitation wavelength of 560 nm and emission at 590 nm. The percentage of cell death was determined as the ratio of live to dead cells compared with the percentage of cell death in control wells to account for cell death attributed to mechanical stimulation of the cultures.

MIF = biological target: T1, MIF (Homo sapiens, UniProt P14174); experiment: Nuclease assay of Example 3 (MIF inhibitory activity, Table 4); format: biochemical; design: (%) inhibition of MIF nuclease activity: concentration or dose not given beside the values; settings: nuclease assay of Example 3
T1 sequence (P14174 1-115): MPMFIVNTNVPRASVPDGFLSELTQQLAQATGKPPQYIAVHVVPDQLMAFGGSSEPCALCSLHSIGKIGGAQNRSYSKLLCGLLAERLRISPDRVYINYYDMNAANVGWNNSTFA
Method: A rapafucin library was synthesized as described in WO2017/136708 and Guo et al. (2018) Nat. Chem. 11:254-63. The hybrid macrocyclic library consisted of 45,000 compounds in pools of 15 individual compounds. The library compounds were screened for MIF inhibitory activity using a nuclease assay as detailed in FIG. 1 and below.
Nuclease assay: Human genomic DNA (200 ng/reaction, Promega), pcDNA (200 ng/reaction) or PS^30 and its related and non-related substrates (1 μM) was incubated with wild type MIF or its variants at a final concentration of 0.25-8 μM as indicated in 10 mM Tris-HCl buffer (pH 7.0) containing 10 mM MgCl2 and 1 mM DTT or specific buffer as indicated, for 1 h (with pcDNA and small DNA substrates) or 4 h (with human genomic DNA) at 37° C. The reaction was terminated with loading buffer containing 10 mM EDTA and incubation on ice. The human genomic DNA samples were immediately separated on a 1.2% pulse field certified agarose in 0.5×TBE buffer with initial switch time of 1.5 s and a final switch time of 3.5 s for 12 h at 6 V/cm. pcDNA samples were determined by 1% agarose gel. Small DNA substrates were separated on 15% or 25% TBE-urea polyacrylamide (PAGE) gel or 20% TBE PAGE gel. Then gel was stained with 0.5 μg/ml Ethidium Bromide (EtBr) followed by electrophoretic transfer to nylon membrane. Then, Biotin-labeled DNA is further detected by chemiluminescence using Chemiluminescent Nucleic Acid Detection Module (Thermo Scientific).
Structure-activity relationship (SAR) analysis was then conducted on the compounds identified as having MIF inhibitory activity. Compounds having the structure of Formula (I) were then synthesized as shown in Example 1 and tested for MIF inhibitory activity using the nuclease assay described herein and neuronal protection via a cell death assay as detailed below.

Row | Compound | (%) inhibition of cell death [1] | (%) inhibition of MIF nuclease activity (MIF)
1 | COc1ccc(CC[C@H]2OC(=O)[C@@H]3CCCCN3C(=O)C(=O)C(C)(C)COC(=O)C=CCCN(C)C(=O)[C@@H]3CCCN3C(=O)[C@H](COC(C)(C)C)N(C)C(=O)[C@@H](CC(C)C)NC(=O)CN(C)C(=O)COc3cccc2c3)cc1OC [compound 11] | 48.9% | 25.6%
2 | CCC[C@@H]1NC(=O)[C@H](COC(C)(C)C)N(C)C(=O)C(c2ccccc2)NC(=O)[C@H](C)N(C)C(=O)COc2cccc(c2)[C@@H](CCc2ccc(OC)c(OC)c2)OC(=O)[C@@H]2CCCCN2C(=O)C(=O)C(C)(C)COC(=O)C=CCCN(C)C1=O (some centres unmarked) [compound 49] | 60.0% | 14.7%
3 | COc1ccc(CC[C@H]2OC(=O)[C@@H]3CCCCN3C(=O)C(=O)C(C)(C)COC(=O)C=CCCN(C)C(=O)CNC(=O)[C@H](COC(C)(C)C)N(C)C(=O)[C@@H](CC(C)C)NC(=O)CN(C)C(=O)COc3cccc2c3)cc1OC [compound 1] | 43.6% | 25.3%
4 | COc1ccc(CC[C@H]2OC(=O)[C@@H]3CCCCN3C(=O)C(=O)C(C)(C)COC(=O)C=CCCN(C)C(=O)[C@@H]3CCCN3C(=O)[C@H](COC(C)(C)C)N(C)C(=O)C(c3ccccc3)NC(=O)[C@H](C)N(C)C(=O)COc3cccc2c3)c(OC)c1OC (some centres unmarked) [compound 124] | 55.9% | −2.7%
5 | COc1ccc(CC[C@H]2OC(=O)[C@@H]3CCCCN3C(=O)C(=O)C(C)(C)COC(=O)C=CCCN(C)C(=O)[C@H](c3ccccc3)NC(=O)[C@H](COC(C)(C)C)N(C)C(=O)C(c3ccccc3)NC(=O)[C@H](C)N(C)C(=O)COc3cccc2c3)cc1OC (some centres unmarked) [compound 60] | 55.4% | 59.4%
6 | COc1ccc(CC[C@H]2OC(=O)[C@@H]3CCCCN3C(=O)C(=O)C(C)(C)COC(=O)C=CCCN(C)C(=O)[C@@H](Cc3ccccc3)NC(=O)[C@H](Cc3ccccc3)N(C)C(=O)[C@@H](C)NC(=O)CN(C)C(=O)COc3cccc2c3)cc1OC [compound 69] | 55.7% | 20.7%
7 | COc1ccc(CC[C@H]2OC(=O)[C@@H]3CCCCN3C(=O)C(=O)C(C)(C)COC(=O)C=CCCN(C)C(=O)[C@H](Cc3ccc(F)cc3)NC(=O)[C@H](COC(C)(C)C)N(C)C(=O)C(c3ccccc3)NC(=O)[C@H](C)N(C)C(=O)COc3cccc2c3)cc1OC (some centres unmarked) [compound 55] | 59.9% | 13.6%
8 | COc1ccc(CC[C@H]2OC(=O)[C@@H]3CCCCN3C(=O)C(=O)C(C)(C)COC(=O)C=CCCN(C)C(=O)[C@@H]3CCCN3C(=O)[C@H](COC(C)(C)C)N(C)C(=O)C(c3ccccc3)NC(=O)[C@H](C)N(C)C(=O)COc3ccc(F)c2c3)cc1OC (some centres unmarked) [compound 112] | 48.3% | 19.2%
9 | COc1ccc(CC[C@H]2OC(=O)[C@@H]3CCCCN3C(=O)C(=O)C(C)(C)COC(=O)C=CCCN(C)C(=O)[C@@H](CC(C)C)NC(=O)[C@H](COC(C)(C)C)N(C)C(=O)[C@H](Cc3ccc4ccccc4c3)NC(=O)[C@H](C)N(C)C(=O)COc3cccc2c3)cc1OC [compound 22] | 56.9% | 61.8%
10 | COc1ccc(CC[C@H]2OC(=O)[C@@H]3CCCCN3C(=O)C(=O)C(C)(C)COC(=O)C=CCCN(C)C(=O)[C@@H]3CCCN3C(=O)[C@H](C(C)C)N(C)C(=O)[C@@H](Cc3ccccc3)NC(=O)[C@H](CC(C)C)N(C)C(=O)CCC(=O)Nc3cccc2c3)cc1OC [compound 86] | 53.0% | 22.7%
11 | COc1ccc(CC[C@H]2OC(=O)[C@@H]3CCCCN3C(=O)C(=O)C(C)(C)COC(=O)C=CCCN(C)C(=O)[C@@H]3CCCN3C(=O)[C@H](COC(C)(C)C)N(C)C(=O)[C@@H](c3ccccc3)NC(=O)[C@H](C)N(C)C(=O)COc3cc(F)cc2c3)cc1OC (racemic) [compound 153] | 93.2% | 71.7%
12 | COc1ccc(CC[C@H]2OC(=O)[C@@H]3CCCCN3C(=O)C(=O)C(C)(C)COC(=O)C=CCCN(C)C(=O)[C@@H]3CCCN3C(=O)[C@H](COC(C)(C)C)N(C)C(=O)[C@H](Cc3ccc(C#N)cc3)NC(=O)[C@H](C)NC(=O)COc3cccc2c3)cc1OC [compound 143] | 46.7% | −1.1%
13 | COc1ccc(CC[C@H]2OC(=O)[C@@H]3CCCCN3C(=O)C(=O)C(C)(C)COC(=O)C=CCCN(C)C(=O)[C@H](Cc3ccc(F)cc3)NC(=O)[C@H](COC(C)(C)C)N(C)C(=O)[C@H](Cc3ccc4ccccc4c3)NC(=O)[C@H](C)N(C)C(=O)COc3cccc2c3)cc1OC [compound 25] | 59.1% | 25.8%
14 | COc1ccc(CC[C@H]2OC(=O)[C@@H]3CCCCN3C(=O)C(=O)C(C)(C)COC(=O)C=CCCN(C)C(=O)[C@H]3CCCN3C(=O)[C@H](COC(C)(C)C)N(C)C(=O)C(c3ccccc3)NC(=O)[C@H](C)N(C)C(=O)COc3cccc2c3)cc1OC (some centres unmarked) [compound 91] | 62.7% | 25.8%
15 | COc1ccc(CC[C@H]2OC(=O)[C@@H]3CCCCN3C(=O)C(=O)C(C)(C)COC(=O)C=CCCN(C)C(=O)[C@@H](C)NC(=O)[C@H](C(C)C)N(C)C(=O)[C@@H](Cc3ccccc3)NC(=O)[C@H](CC(C)C)N(C)C(=O)CCC(=O)Nc3cccc2c3)cc1OC [compound 78] | 44.7% | 9.0%
16 | COc1ccc(CC[C@H]2OC(=O)[C@@H]3CCCCN3C(=O)C(=O)C(C)(C)COC(=O)C=CCCN(C)C(=O)[C@@H]3CCCN3C(=O)[C@H](COC(C)(C)C)N(C)C(=O)[C@H](Cc3ccccc3)NC(=O)[C@H](C)N(C)C(=O)COc3cccc2c3)cc1OC [compound 101] | 31.5% | 9.1%
17 | COc1ccc(CC[C@H]2OC(=O)[C@@H]3CCCCN3C(=O)C(=O)C(C)(C)COC(=O)C=CCCN(C)C(=O)[C@@H]3CCCN3C(=O)[C@H](COC(C)(C)C)N(C)C(=O)C(c3ccccc3)NC(=O)[C@H](C)N(C)C(=O)COc3cncc2c3)cc1OC (some centres unmarked) [compound 126] | 46.8% | 6.7%
18 | COc1ccc(CC[C@H]2OC(=O)[C@@H]3CCCCN3C(=O)C(=O)C(C)(C)COC(=O)C=CCCN(C)C(=O)[C@H](C(C)C)NC(=O)[C@H](COC(C)(C)C)N(C)C(=O)C(c3ccccc3)NC(=O)[C@H](C)N(C)C(=O)COc3cccc2c3)cc1OC (some centres unmarked) [compound 59] | 58.9% | 13.3%
19 | CCC[C@@H]1NC(=O)[C@H](COC(C)(C)C)N(C)C(=O)[C@@H](Cc2ccc3ccccc3c2)NC(=O)[C@H](C)N(C)C(=O)COc2cccc(c2)[C@@H](CCc2ccc(OC)c(OC)c2)OC(=O)[C@@H]2CCCCN2C(=O)C(=O)C(C)(C)COC(=O)C=CCCN(C)C1=O [compound 19] | 62.4% | 59.9%
20 | COc1ccc(CC[C@H]2OC(=O)[C@@H]3CCCCN3C(=O)C(=O)C(C)(C)COC(=O)C=CCCN(C)C(=O)[C@H](Cc3ccc(F)cc3)NC(=O)[C@H](COC(C)(C)C)N(C)C(=O)C(c3ccccc3)NC(=O)CN(C)C(=O)COc3cccc2c3)cc1OC (some centres unmarked) [compound 40] | 53.8% | 37.4%
21 | COc1ccc(CC[C@H]2OC(=O)[C@@H]3CNCCN3C(=O)C(=O)C(C)(C)COC(=O)C=CCCN(C)C(=O)[C@@H]3CCCN3C(=O)[C@H](COC(C)(C)C)N(C)C(=O)C(c3ccccc3)NC(=O)[C@H](C)N(C)C(=O)COc3cccc2c3)cc1OC (some centres unmarked) [compound 128] | 47.4% | 11.0%
22 | COc1ccc(CC[C@H]2OC(=O)[C@@H]3CCCCN3C(=O)C(=O)C(C)(C)COC(=O)C=CCCN(C)C(=O)[C@@H]3CCCN3C(=O)[C@H](COC(C)(C)C)N(C)C(=O)[C@H](C)NC(=O)[C@H](C)N(C)C(=O)COc3cccc2c3)cc1OC [compound 100] | 26.1% | 13.4%
